{
  "source": "patent US7923578B2",
  "about": "“Method of manufacturing 3-(4-hydroxyphenyl)propanoic acid amide, its application in the manufacture of anti-aging compositions and anti-aging composition” (Instytut Chemii Bioorganicznej Pan, priority 2005, dated 2011)",
  "key": {"[1]": {"test_system": "fibroblasts", "assay": "Induction of cell proliferation (DNA synthesis, BrdU incorporation)", "assay_type": "cell-based, human", "conditions": "pre-treated fibroblasts"}, "[2]": {"test_system": "middle aged dermal fibroblasts", "assay": "Mitochondrial activity / cell survival (MTT assay)", "assay_type": "cell-based, human", "protocol": "Test solution preparation: Stock solutions of 8 mM for the 3-p-hydroxyphenyl-propanoic acid amide were prepared by dissolving about 30 mg/ml in Hank's buffer to a final volume of 30 ml. In brief, the stock solutions were filter sterilized, stored at 4° C., and were used for experiments at their appropriate dilutions in cell culture media as required. Cell culture: All experiments were performed on mid- and late passage cultures of normal human adult skin fibroblast line, designated Senetek SNF25 (40-75% life span completed). In order to check the effects of test compounds on senescent cells, late passage cells with about 75% lifespan completed were used. […] The effects of the test chemicals were determined in the following conditions: Growth characteristics: Short-term growth experiments were performed using 24-well tissue culture plates (growth area 1.9 cm^2) and flat bottom 96 well plates (growth area 0.328 cm^2). […] The numbers of cells were counted after different days of treatment in 2 wells from each concentration of the test chemical, by following the normal method of cell trypsinization and counting using a Coulter Counter. […] Cell survival, toxicity and JC-1 staining: Cell survival after exposure to various doses was measured with the 3-(4,5 dimethylthiazol-2-yl)-2,5-diphenyltetrazolium bromide (MTT) assay. […] The absorbance was measured at 595 nm. […]"}, "[3]": {"test_system": "Fibroblast cells (SF25 p29)", "assay": "Lysosomal activity (Neutral Red Uptake assay)", "assay_type": "cell-based, human", "protocol": "(§1) Test solution preparation: Stock solutions of 8 mM for the 3-p-hydroxyphenyl-propanoic acid amide were prepared by dissolving about 30 mg/ml in Hank's buffer to a final volume of 30 ml. In brief, the stock solutions were filter sterilized, stored at 4° C., and were used for experiments at their appropriate dilutions in cell culture media as required. Cell culture: All experiments were performed on mid- and late passage cultures of normal human adult skin fibroblast line, designated Senetek SNF25 (40-75% life span completed). In order to check the effects of test compounds on senescent cells, late passage cells with about 75% lifespan completed were used. SNF25 cell line was established from a mammary skin biopsy obtained from a young, non-smoking and healthy […] at the time of breast reduction operation. Normal culture conditions of medium (DMEM) containing antibiotics, 10% fetal calf serum, and incubation at 37° C., 5% CO2 with 95% humidity were used. The effects of the test chemicals were determined in the following conditions: Growth characteristics: Short-term growth experiments were performed using 24-well tissue culture plates (growth area 1.9 cm^2) and flat bottom 96 well plates (growth area 0.328 cm^2). Freshly prepared cell suspensions from mass cultures of SNF25 cells maintained in the lab were used. About 10,000 cells/well were seeded into 6 sets of 24-well plates. The cells were either allowed to attach and stabilize for 24 hours in normal culture medium or were directly added to the culture medium of a final concentration (range 40 μM to 500 μM). Culture medium was changed with the addition of test chemicals weekly. The numbers of cells were counted after different days of treatment in 2 wells from each concentration of the test chemical, by following the normal method of cell trypsinization and counting using a Coulter Counter. The third well in each category was fixed with cold methanol and stained with Giemsa stain for permanent record and for photography. The experiment was carried on until the cultures became fully confluent and no further growth was possible. Cell survival, toxicity and JC-1 staining: Cell survival after exposure to various doses was measured with the 3-(4,5 dimethylthiazol-2-yl)-2,5-diphenyltetrazolium bromide (MTT) assay. About 5,000 cells were seeded per well in a 96-well plate for 24 hours before the experiment. Cells were then treated with various doses of the compound to be tested. The wells were washed in Hank's and new medium was added. […] The absorbance was measured at 595 nm. […] The cultures were visually examined after 72 hours, and the number of viable cells and/or the total cell protein content determined, after 72 hours exposure, by the Neutral Red Uptake method. […]"}, "[4]": {"test_system": "human dermal fibroblasts (SNF25)", "assay": "Cell attachment of human skin fibroblasts", "assay_type": "cell-based", "protocol": "as §1, with “The cells were either allowed to attach and stabilize for 24 hours in normal culture medium or were directly added to the culture medium of a final concentration (range 40 μM to 500 μM). Culture medium was changed with the addition of test chemicals weekly.” left out, “The third well in each category was fixed with cold methanol and stained with Giemsa stain for permanent record and for photography. The experiment was carried on until the cultures became fully confluent and no further growth was possible.” left out, “assay.” for “assay. About 5,000 cells were seeded per well in a 96-well plate for 24 hours before the experiment. Cells were then treated with various doses of the compound to be tested. The wells were washed in Hank's and new medium was added.”"}, "[5]": {"test_system": "SNF25 p 44 cells", "assay": "JC-1 staining of mitochondrial potential by fluorescence microscopy", "assay_type": "cell-based, human", "conditions": "pre-treatment for 3 days, all doses", "protocol": "FIG. 3 presents the localization of JC-1 in SNF25 p44 cells using phloretamide by fluorescence microscopy.\nLocalization of JC-1 in SNF25 p 44 cells using phloretamide by fluorescence microscopy is shown on FIG. 3.\nStaining for JC-1 was performed after phloretamide pre-treatment on dermal fibroblasts for a period of 3 days to see the mitochondrial potential."}, "[6]": {"test_system": "human skin fibroblasts (SNF25 p 23)", "assay": "Short-term growth (one step growth curve, Coulter counting, Giemsa morphology)", "assay_type": "cell-based", "protocol": "Test solution preparation: Stock solutions of 8 mM for the 3-p-hydroxyphenyl-propanoic acid amide were prepared by dissolving about 30 mg/ml in Hank's buffer to a final volume of 30 ml. In brief, the stock solutions were filter sterilized, stored at 4° C., and were used for experiments at their appropriate dilutions in cell culture media as required. Cell culture: All experiments were performed on mid- and late passage cultures of normal human adult skin fibroblast line, designated Senetek SNF25 (40-75% life span completed). In order to check the effects of test compounds on senescent cells, late passage cells with about 75% lifespan completed were used. SNF25 cell line was established from a mammary skin biopsy obtained from a young, non-smoking and healthy […] at the time of breast reduction operation. Normal culture conditions of medium (DMEM) containing antibiotics, 10% fetal calf serum, and incubation at 37° C., 5% CO2 with 95% humidity were used. The effects of the test chemicals were determined in the following conditions: Growth characteristics: Short-term growth experiments were performed using 24-well tissue culture plates (growth area 1.9 cm^2) and flat bottom 96 well plates (growth area 0.328 cm^2). Freshly prepared cell suspensions from mass cultures of SNF25 cells maintained in the lab were used. About 10,000 cells/well were seeded into 6 sets of 24-well plates. The cells were either allowed to attach and stabilize for 24 hours in normal culture medium or were directly added to the culture medium of a final concentration (range 40 μM to 500 μM). Culture medium was changed with the addition of test chemicals weekly. The numbers of cells were counted after different days of treatment in 2 wells from each concentration of the test chemical, by following the normal method of cell trypsinization and counting using a Coulter Counter. The third well in each category was fixed with cold methanol and stained with Giemsa stain for permanent record and for photography. The experiment was carried on until the cultures became fully confluent and no further growth was possible. Cell survival, toxicity and JC-1 staining: Cell survival after exposure to various doses was measured with the 3-(4,5 dimethylthiazol-2-yl)-2,5-diphenyltetrazolium bromide (MTT) assay. About 5,000 cells were seeded per well in a 96-well plate for 24 hours before the experiment. Cells were then treated with various doses of the compound to be tested. The wells were washed in Hank's and new medium was added. After three days, MTT (Sigma, M2128) was added at 0.5 mg/ml in medium. After 4 h, MTT was removed and isopropanol and HCl were added to dissolve the MTT crystals for 12-16 h. The absorbance was measured at 595 nm. Lysosomal activity: Neutral Red is preferentially taken up into the lysosomes of the cell. Fibroblast cells were maintained in culture and exposed to test compounds over a range of concentrations. The cultures were visually examined after 72 hours, and the number of viable cells and/or the total cell protein content determined, after 72 hours exposure, by the Neutral Red Uptake method. Individual wells of a 96-well tissue culture microtiter plate were inoculated with 0.2 ml of the appropriate media containing cells (usually 3×10^3 cells). After 1 day of incubation, the media were removed and replaced with unamended (control) medium or with medium amended with varied concentrations of the compound to be tested. […]"}, "[7]": {"test_system": "late passage cells", "assay": "Cell survival of late passage (senescent) cells, Coulter counting", "assay_type": "cell-based, human", "protocol": "Effects on late passage cells—Cytoskeletal organization: Late passage cells with more than 75% lifespan were treated with different doses of phloretamide in order to see if this treatment could revert any of the age related changes. […] Effect of 3-p-hydroxyphenyl-propionic acid amide on the morphology of late passage cells after 7 and 14 days—Morphology of senescent cells: Late passage human skin fibroblasts (about 75% life span completed) were treated with various doses of phloretamide to see whether this treatment could reverse age-related alterations in their morphology. […] Heterogeneous behavior was not observed in the cells. […] Cell survival: Equal numbers of senescent cells were seeded in separate flasks and were treated with different concentrations of phloretamide. Cell numbers were determined by using a Coulter counter after trypsinization and resuspension of cells after 7 and 14 days of treatment."}, "[8]": {"test_system": "Late passage human skin fibroblasts", "assay": "Cytoskeletal organization and morphology of late passage cells", "assay_type": "cell-based", "protocol": "as §1, with “The cells were either allowed to attach and stabilize for 24 hours in normal culture medium or were directly added to the culture medium of a final concentration (range 40 μM to 500 μM). Culture medium was changed with the addition of test chemicals weekly.” left out, “The third well in each category was fixed with cold methanol and stained with Giemsa stain for permanent record and for photography. The experiment was carried on until the cultures became fully confluent and no further growth was possible.” left out, “assay.” for “assay. About 5,000 cells were seeded per well in a 96-well plate for 24 hours before the experiment. Cells were then treated with various doses of the compound to be tested. The wells were washed in Hank's and new medium was added.”"}},
  "note": "“And” between values parts separate entries of the source, which are not always exact repeats. Identical values can stand only once.",
  "data": [
    {"molecule": "NC(=O)CCc1ccc(O)cc1", "note": "[phloretamide, 3-(4-hydroxyphenyl)propanoic acid amide]", "values": [
      {"measurement": "DNA synthesis in comparison to the controls", "setting": "[1]", "value": "no significant differences"},
      {"measurement": "effects on the activity of mitochondria", "setting": "[2]; until a dose of 500 μM, 3 days, MTT", "value": "no negative effects"},
      {"measurement": "induction of cell growth", "setting": "[2]; within the tested range of doses (0, 01 μM-500 μM)", "value": "no induction of cell growth"},
      {"measurement": "staining pattern of the cells (lysosomal staining)", "setting": "[3]; 40 μM and 80 μM, FIG. 4", "value": "showed autophagy"},
      {"measurement": "decrease in the lysosomal autophagy", "setting": "[3]; dose range of 40 μM and 80 μM", "value": "15-40%"},
      {"measurement": "lysosomal rate compared to the untreated", "setting": "[3]; up to 200 μM, 72 hours exposure", "value": "decreased in a dose dependent manner"},
      {"measurement": "lysosomal activity", "setting": "[3]; upwards of 40 μM", "value": "decrease in lysosomal activity was observed"},
      {"measurement": "percentage of cells attached to the surface of the culture flask", "setting": "[4]; after six hours of treatment, 40 11 M to 2 mM", "value": "not affected to any significant extent"},
      {"measurement": "improved / enhanced cell attachment", "setting": "[4]; at 40 μM and 80 μM", "value": "20-30% and 10-20%"},
      {"measurement": "immediate toxicity to human dermal fibroblasts", "setting": "[4]; six hours of treatment", "value": "not immediately toxic"},
      {"measurement": "JC-1 staining (mitochondrial potential)", "setting": "[5]", "value": "polarized mitochondria"},
      {"measurement": "JC-1 staining (mitochondrial potential)", "setting": "[5]; listed as 3-p-hydroxyphenyl-propionic acid amide", "value": "Punctate orange-red fluorescent staining was observed"},
      {"measurement": "inhibition at 500 µM", "setting": "[6]; Homo sapiens, Skin fibroblast, 264 h, higher concentrations (500 μM), 11 days, read-out: inhibition of cellular growth", "value": "> 50", "unit": "%"},
      {"measurement": "increase in cell numbers", "setting": "[6]; after 11 days of treatment, 40 μM to 200 μM", "value": "10-20%"},
      {"measurement": "doses at which cytotoxicity of cells was seen", "setting": "[6]; after 11 days of treatment, morphology", "value": "greater than 200 μM"},
      {"measurement": "stimulation of cell growth", "setting": "[6]; at 40 μM and 80 μM, one step growth curve, up to 11 days", "value": "stimulation of cell growth"},
      {"measurement": "appearance (morphology) of cells", "setting": "[6]; at higher doses, after 11 days of treatment (FIG. 2 E)", "value": "larger, irregularly arranged and sparse"},
      {"measurement": "numbers of surviving late passage cells", "setting": "[7]; after one and two weeks", "value": "almost similar without much difference"},
      {"measurement": "cell growth of late passage cells", "setting": "[7]; at higher doses, after 7 and 14 of treatment", "value": "dose dependent reduction"},
      {"measurement": "improvement in the late passage cells", "setting": "[8]; after 14 days of treatment", "value": "couldn't find an improvement"},
      {"measurement": "appearance (morphology) of late passage cells", "setting": "[8]; after seven and fourteen days of treatment, about 75% life span completed", "value": "subtle differences"},
      {"measurement": "actin staining pattern, treated versus untreated cells", "setting": "[8]; middle-aged cells after 3 days", "value": "no obvious differences"}
    ]}
  ]
}
